The text below walks through data of patent US7326700B2, “Cyclohexenyl phenyl carboxamides tocolytic oxytocin receptor antagonists” (Wyeth, priority 2001, dated 2008).

pIC50: −log10 of the molar value. Some results are limits rather than exact numbers.

In one test the target is T1, human vasopressin V2 receptor subtype (Homo sapiens, UniProt P30518).
T1 construct: host or cells: CHO cells, stably transfected (pZeoSV vector)
The test is described as follows: Vasopressin binding in CHO cell membranes expressing human vasopressin V2 subtype receptors ([3H]arginine vasopressin radioligand binding). Conditions: 100 nM. From the text: Chinese Hamster Ovary (CHO) cells stably transfected with the human V2 subtype receptors were obtained from M. Thibonnier, Case Western Reserve University School of Medicine, Cleveland, Ohio.
CHO cells transfected with the human vasopressin V2 subtype receptors obtained from M. Thibonnier (pZeoSV vector) are allowed to grow to confluency (approx. >90%) in T-150 flasks under sterile conditions, in a cell culture medium consisting of F-12 Nutrient Mixture (HAM) with L-glutamine (Gibco Cat. #11765-054) containing 15 mM HEPES (Gibco Cat. #15630-080), 1% antibiotic/antimycotic (add 5 mL 100×, Gibco Cat. #15240-062 per 500 mL F-12), 250 μg/mL Zeocin (add 1.25 mL of 100 mg/mL Invitrogen R-250-01 per 500 mL F-12) and 10% Fetal Bovine Serum (Qualified, heat inactivated, Gibco Cat. #16140-063). The medium is removed by aspiration and the cells washed with 10 mL of Hank's Balanced Salt solution (Gibco Cat. #14175-095). The salt solution is removed by aspiration and the cells trypsinized with 5 mL of trypsin-EDTA (0.05% trypsin, 0.53 mM EDTA-4Na, Gibco Cat. #25300-070) for 1 min. The trypsin is removed by aspiration and the cells dislodged by tapping. Cell Culture medium (e.g. 30 mL for 1:30 split) is immediately added and mixed well to inactivate trypsin. 1 mL of detached cells is added to new culture flasks containing fresh Cell Culture medium (e.g. into 25 mL per T-150 flask), and mixed gently. The cells are incubated at 37° C. in 5% CO2. The medium is changed at 3 to 4 day interval (or as appropriate). The cells grow to confluency (approx. >75%-95%) within 7-8 days. All steps are done under sterile conditions.
The cells are washed twice gently with Hank's Balanced Salt solution (e.g. use 10 mL per T-150 flask). The excess solution is removed and the cells bathed for 15-30 min. in an enzyme-free Cell Dissociation Buffer (e.g. use 8 mL Hank's Based, Gibco Cat. #13150-016 per T-150 flask) until cells are loosened. The contents are transferred to centrifuge tubes (50 mL) kept in an ice bath. All subsequent steps are done at 4° C. The tubes are centrifuged at 300×g for 15 min (1380 rpm on SORVAL, Model RT6000D, using the rotor for 50 mL tubes). The supernatant is discarded and the cells suspended in homogeneizing buffer(10 mM Tris-HCl containing 0.25 M sucrose and 1 mM EDTA, pH 7.4) ensuring that the volume of the buffer is about ten times the volume of the cell pellet. The cells are pooled into a centrifuge tube (50 mL) and homogenized with Polytron at setting 6 for 10 sec. The homogenate is transferred into a Potter-Elvjehm homogeneizer and homogenized with 3 strokes. The homogenate is centrifuged at 1500×g for 60 min at 4° C. (3100 rpm using SORVAL, model RT6000D, using the rotor for 50 mL tubes). The pellet is discarded. The supernatant is centrifuged at 100,000×g for 60 min. at 4° C. (Beckman L8-80M ultracentrifuge; spin at 37,500 rpm with rotor type 70 Ti for 50 mL tubes; 38,000 rpm with type 80 Ti for 15 mL tubes; or 35,800 rpm with rotor type 45Ti). The supernantant is discarded and the pellet suspended in 3 to 4 mL of Tris buffer (50 mM TRIS-HCl, pH 7.4). The protein content is estimated by the Bradford or Lowry method. The volume of the membrane suspension is adjusted with the membrane buffer (50 mM Tris-HCl containing 0.1% BSA and 0.1 mM PMSF) to give 3.0 mg/mL (or as appropriate) of protein. The membranes are aliquoted and stored at −70° C.
In wells of a 96-well format microtiter plate, is added 90, 110 or 130 μL (to make up a final volume of 200 μL) of assay buffer containing 50 mM of Tris-HCl (pH 7.4), […], 1 mg % aprotinin, 1 mg % leupeptin, 2 mg % 1,10-phenanthroline, 10 mg % trypsin inhibitor, and 0.1 mM PMSF. The inhibitors are added on the day of the experiment. The components are mixed at room temperature, and then kept in ice bath following adjustment of the pH to 7.4. […]
As to `Cc1cc(C(=O)N2Cc3ccc(C(=O)N4CCN(CCN(C)C)CC4)n3Cc3ccccc32)ccc1C1=CCCCC1` [Example 22, {10-[4-(1-Cyclohex-1-en-1-yl)-3-methylbenzoyl]-10,11-dihydro-5H-pyrrolo[2,1-c][1,4]benzodiazepin-3-yl}{4-[2-(dimethylamino)ethyl]-1-piperazinyl}methanone], the “V2 % inhibition @ 100 nM” value is on record as 13%.

Regarding `Cc1cc(C(=O)N2Cc3ccc(C(=O)N4CCN(CCN5CCOCC5)CC4)n3Cc3ccccc32)ccc1C1=CCCCC1` [Example 23, {10-[4-(1-Cyclohex-1-en-1-yl)-3-methylbenzoyl]-10,11-dihydro-5H-pyrrolo[2,1-c][1,4]benzodiazepin-3-yl}{4-[2-(4-morpholinyl)ethyl]-1-piperazinyl}methanone], the “V2 % inhibition @ 100 nM” value was 18%.

Consider `C=CCN1CCN(C(=O)c2ccc3n2Cc2ccccc2N(C(=O)c2ccc(C4=CCCCC4)c(C)c2)C3)CC1` [Example 24, (4-Allyl-1-piperazinyl){10-[4-(1-cyclohex-1-en-1-yl)-3-methylbenzoyl]-10,11-dihydro-5H-pyrrolo[2,1-c][1,4]benzodiazepin-3-yl}methanone], for which the “V2 % inhibition @ 100 nM” value is 12%.

Take `Cc1cc(C(=O)N2Cc3ccc(C(=O)N4CCN(C(C)C)CC4)n3Cc3ccccc32)ccc1C1=CCCCC1` [Example 25, {10-[4-(1-Cyclohex-1-en-1-yl)-3-methylbenzoyl]-1 0,11-dihydro-5H-pyrrolo[2,1-c][1,4]benzodiazepin-3-yl}(4-isopropyl-1-piperazinyl)methanone]: the “V2 % inhibition @ 100 nM” value is 10%.

`Cc1cc(C(=O)N2Cc3ccc(C(=O)N4CCC[C@H]4CN4CCCC4)n3Cc3ccccc32)ccc1C1=CCCCC1` [Example 26, {10-[4-(1-Cyclohex-1-en-1-yl)-3-methylbenzoyl]-10,11-dihydro-5H-pyrrolo[2,1-c][1,4]benzodiazepin-3-yl}[(2S)-2-(1-pyrrolidinylmethyl)pyrrolidinyl]methanone]: the “V2 % inhibition @ 100 nM” value is reported as 9%.

In the case of `Cc1cc(C(=O)N2Cc3ccc(C(=O)N4CC[C@@H](N(C)C)C4)n3Cc3ccccc32)ccc1C1=CCCCC1` [Example 27, {10-[4-(1-Cyclohex-1-en-1-yl)-3-methylbenzoyl]-10,11-dihydro-5H-pyrrolo[2,1-c][1,4]benzodiazepin-3-yl}[(3R)-3-(dimethylamino)pyrrolidinyl]methanone], the “V2 % inhibition @ 100 nM” value is listed as 10%.

The same test, now with this note: value in parentheses.
Broadly, the pIC50 is −log10 of the IC50, conventionally taken in molar units. In the case of “{10-[4-(1-Cyclohexen-1-yl)-3-methylbenzoyl]-10,11-dihydro-5H-pyrrolo[2,1-c][1,4]benzodiazepin-3-yl}(4-methyl-piperazin-1-yl)methanone [Example 12]”, the pIC50 was < 6.00.
